Here are results for one compound from US7407947B2, “Amphoteric sterols and the use thereof” (Novosom AG, priority 2001, dated 2008).

A short description of this series: Isoelectric point of the sterol derivative. In kind it is physicochemical. The conditions noted are these: stated as very close to pH 6.5.

`CC(C)CCCC(C)C1CCC2C3CC=C4CC(OC(=O)CCC(=O)NC(Cc5cnc[nH]5)C(=O)O)CCC4(C)C3CCC12C` [Hist-Chol, Cholesteryl-L-histidyl Succinate] returned an isoelectric point of around 6.5.
